Molecular target: T1, full-length human PKCι (Homo sapiens, UniProt P41743)
T1 construct: Recombinant, full-length human PKCι expressed in Sf21 insect cells is also commercially available; purchased; host or cells: Sf21 insect cells
T1 sequence (P41743 1-596): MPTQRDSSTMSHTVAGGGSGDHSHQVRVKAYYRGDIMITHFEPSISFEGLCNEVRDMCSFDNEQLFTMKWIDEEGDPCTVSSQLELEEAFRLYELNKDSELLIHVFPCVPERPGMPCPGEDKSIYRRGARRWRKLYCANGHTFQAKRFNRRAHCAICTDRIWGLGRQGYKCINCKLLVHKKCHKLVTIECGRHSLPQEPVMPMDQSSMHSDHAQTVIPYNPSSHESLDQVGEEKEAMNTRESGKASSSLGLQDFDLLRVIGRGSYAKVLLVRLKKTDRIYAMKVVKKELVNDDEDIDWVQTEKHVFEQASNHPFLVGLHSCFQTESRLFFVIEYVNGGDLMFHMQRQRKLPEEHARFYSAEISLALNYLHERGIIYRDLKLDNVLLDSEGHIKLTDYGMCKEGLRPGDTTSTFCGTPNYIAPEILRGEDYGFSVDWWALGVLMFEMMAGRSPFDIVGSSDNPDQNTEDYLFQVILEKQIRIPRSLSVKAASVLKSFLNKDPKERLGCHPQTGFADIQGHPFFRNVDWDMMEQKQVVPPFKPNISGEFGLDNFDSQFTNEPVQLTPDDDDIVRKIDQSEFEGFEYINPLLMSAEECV
Assay: PKCι IC50 IMAP fluorescence polarisation assay, full-length enzyme
Assay type: biochemical
Conditions: full length PKCi at 15 μM ATP; read-out: IC50 in IMAP assay against full length PKCi

Row | SMILES | IC50
1 | Cc1cc(-c2csc3c(NC[C@@H](N)Cc4ccccc4)nc(-c4ccncc4)nc23)no1 [compound 568, (S)-N*1*-[7-(5-Methyl-isoxazol-3-yl)-2-pyridin-4-yl-thieno[3,2-d]pyrimidin-4-yl]-3-phenyl-propane-1,2-diamine] | 0.1 to 1 µM
2 | CC(C)[C@](C)(O)C#Cc1csc2c(NC[C@@H](N)Cc3ccccc3)nc(-c3ccncc3)nc12 [compound 524, (S)-1-[4-((S)-2-Amino-3-phenyl-propylamino)-2-pyridin-4-yl-thieno[3,2-d]pyrimidin-7-yl]-3,4-dimethyl-pent-1-yn-3-ol] | 1 to 10 µM
3 | Cc1ncccc1-c1c(C)sc2c(NC[C@@H](N)Cc3ccccc3)nc(-c3ccncc3)nc12 [compound 459, (S)-N*1*-[6-Methyl-7-(2-methyl-pyridin-3-yl)-2-pyridin-4-yl-thieno[3,2-d]pyrimidin-4-yl]-3-phenyl-propane-1,2-diamine] | 10 to 40 µM
4 | CC(C)(C)C#Cc1csc2c(NC[C@@H](N)Cc3ccccc3)nc(-c3ccncc3)nc12 [compound 511, (S)-N*1*-[7-(3,3-Dimethyl-but-1-ynyl)-2-pyridin-4-yl-thieno[3,2-d]pyrimidin-4-yl]-3-phenyl-propane-1,2-diamine] | 1 to 10 µM
5 | CC[C@H](O)C#Cc1csc2c(NC[C@@H](N)Cc3ccccc3)nc(-c3ccncc3)nc12 [compound 521] | < 0.1 µM
6 | c1cc(-c2nc(N[C@@H]3CCNC3)c3sccc3n2)ccn1 [compound 317, (2-Pyridin-4-yl-thieno[3,2-d]pyrimidin-4-yl)-(R)-pyrrolidin-3-yl-amine] | 1 to 10 µM
7 | C[C@H](O)C#Cc1csc2c(NC[C@@H](N)Cc3ccccc3)nc(-c3ccncc3F)nc12 [compound 508, (S)-4-[4-((S)-2-Amino-3-phenyl-propylamino)-2-(3-fluoro-pyridin-4-yl)-thieno[3,2-d]pyrimidin-7-yl]-but-3-yn-2-ol] | 0.1 to 1 µM
8 | N[C@H](CNc1nc(-c2ccncc2)nc2c(-c3cc(C4CC4)[nH]n3)csc12)Cc1ccccc1 [compound 418, (S)-N*1*-[7-(5-Cyclopropyl-1H-pyrazol-3-yl)-2-pyridin-4-yl-thieno[3,2-d]pyrimidin-4-yl]-3-phenyl-propane-1,2-diamine] | 0.1 to 1 µM
9 | N[C@H](CNc1nc(-c2ccncc2F)nc2c(Br)csc12)Cc1ccccc1 [compound 304, (S)—N*1*-[7-Bromo-2-(3-fluoro-pyridin-4-yl)-thieno[3,2-d]pyrimidin-4-yl]-3-phenyl-propane-1,2-diamine] | < 0.1 µM
10 | CN1CCN(c2ccc(Nc3cc(-c4nc(N[C@@H]5CCNC5)c5sccc5n4)ccn3)nc2)CC1 [compound 603, (2-{2-[5-(4-Methyl-piperazin-1-yl)-pyridin-2-ylamino]-pyridin-4-yl}-thieno[3,2-d]pyrimidin-4-yl)-(R)-pyrrolidin-3-yl-amine] | 0.1 to 1 µM
11 | Cc1sc2c(N[C@@H]3CCNC3)nc(-c3ccncc3)nc2c1Br [compound 328, (7-Bromo-6-methyl-2-pyridin-4-yl-thieno[3,2-d]pyrimidin-4-yl)-(R)-pyrrolidin-3-yl-amine] | 0.1 to 1 µM
12 | N[C@H](CNc1nc(-c2ccncc2)nc2c(Nc3ccccc3)csc12)Cc1ccccc1 [compound 485, N*4*-((S)-2-Amino-3-phenyl-propyl)-N*7*-phenyl-2-pyridin-4-yl-thieno[3,2-d]pyrimidine-4,7-diamine] | 0.1 to 1 µM
13 | Fc1c(-c2nc(N[C@@H]3CCNC3)c3sccc3n2)ccnc1Nc1cnccn1 [compound 585, {2-[3-Fluoro-2-(pyrazin-2-ylamino)-pyridin-4-yl]-thieno[3,2-d]pyrimidin-4-yl}-(R)-pyrrolidin-3-yl-amine] | 1 to 10 µM
14 | c1cnc(Nc2cc(-c3nc(N[C@@H]4CCNC4)c4sccc4n3)ccn2)cn1 [compound 577, {2-[2-(Pyrazin-2-ylamino)-pyridin-4-yl]-thieno[3,2-d]pyrimidin-4-yl}-(R)-pyrrolidin-3-yl-amine] | 0.1 to 1 µM
15 | Fc1c(-c2nc(N[C@@H]3CCNC3)c3sccc3n2)ccnc1Nc1ccccc1 [compound 619, [2-(3-Fluoro-2-phenylamino-pyridin-4-yl)-thieno[3,2-d]pyrimidin-4-yl]-(R)-pyrrolidin-3-yl-amine] | 10 to 40 µM
16 | CC(C)(C)c1sc2c(NC[C@H](N)Cc3ccccc3)nc(-c3ccncc3)nc2c1Br [compound 335, (R)-N*1*-(7-Bromo-6-tert-butyl-2-pyridin-4-yl-thieno[3,2-d]pyrimidin-4-yl)-3-phenyl-propane-1,2-diamine] | 10 to 40 µM
17 | N[C@H](CNc1nc(-c2cc[n+]([O-])cc2)nc2c(-c3ccn[nH]3)csc12)Cc1ccccc1 [compound 565, (S)—N*1*-[2-(1-Oxy-pyridin-4-yl)-7-(2H-pyrazol-3-yl)-thieno[3,2-d]pyrimidin-4-yl]-3-phenyl-propane-1,2-diamine] | 1 to 10 µM
18 | N[C@H](CNc1nc(-c2ccncc2F)nc2c(-c3ccccc3)csc12)Cc1ccccc1 [compound 434, (S)-N*1*-[2-(3-Fluoro-pyridin-4-yl)-7-phenyl-thieno[3,2-d]pyrimidin-4-yl]-3-phenyl-propane-1,2-diamine] | 1 to 10 µM
19 | NC(CNc1nc(-c2ccncc2F)nc2c(-c3ccoc3)csc12)Cc1ccccc1 (stereo in doubt) [compound 426, (R)-N*1*-[2-(3-Fluoro-pyridin-4-yl)-7-furan-3-yl-thieno[3,2-d]pyrimidin-4-yl]-3-phenyl-propane-1,2-diamine] | 0.1 to 1 µM
20 | N[C@H](CNc1nc(-c2ccncc2)nc2c(-n3ccnn3)csc12)Cc1ccccc1 [compound 562, (S)-3-Phenyl-N*1*-(2-pyridin-4-yl-7-[1,2,3]triazol-1-yl-thieno[3,2-d]pyrimidin-4-yl)-propane-1,2-diamine] | 0.1 to 1 µM
21 | CC(C)(O)CC#Cc1csc2c(NC[C@@H](N)Cc3ccccc3)nc(-c3ccncc3)nc12 [compound 537, 5-[4-((S)-2-Amino-3-phenyl-propylamino)-2-pyridin-4-yl-thieno[3,2-d]pyrimidin-7-yl]-2-methyl-pent-4-yn-2-ol] | 0.1 to 1 µM
22 | Brc1csc2c(N[C@@H]3CCCNC3)nc(-c3ccncc3)nc12 [compound 343, (7-Bromo-2-pyridin-4-yl-thieno[3,2-d]pyrimidin-4-yl)-(R)-piperidin-3-yl-amine] | 0.1 to 1 µM
23 | Cc1sc2c(NC[C@@H](N)Cc3ccccc3)nc(-c3ccncc3)nc2c1C [compound 325, (S)-N*1*-(6,7-Dimethyl-2-pyridin-4-yl-thieno[3,2-d]pyrimidin-4-yl)-3-phenyl-propane-1,2-diamine] | 0.1 to 1 µM
24 | Cc1sc2c(NC[C@@H](N)Cc3ccccc3)nc(-c3ccncc3)nc2c1-c1cc(Cl)ccc1OC(C)C [compound 460, (S)-N*1*-[7-(5-Chloro-2-isopropoxy-phenyl)-6-methyl-2-pyridin-4-yl-thieno[3,2-d]pyrimidin-4-yl]-3-phenyl-propane-1,2-diamine] | 10 to 40 µM
25 | Cc1sc2c(NC[C@@H](N)Cc3ccccc3)nc(-c3ccncc3)nc2c1-c1ccc(F)nc1 [compound 438, (S)-N*1*-[7-(6-Fluoro-pyridin-3-yl)-6-methyl-2-pyridin-4-yl-thieno[3,2-d]pyrimidin-4-yl]-3-phenyl-propane-1,2-diamine] | 1 to 10 µM
26 | Fc1cnccc1-c1nc(N[C@@H]2CCNC2)c2scc(Br)c2n1 [compound 352, [7-Bromo-2-(3-fluoro-pyridin-4-yl)-thieno[3,2-d]pyrimidin-4-yl]-(R)-pyrrolidin-3-yl-amine] | 1 to 10 µM
27 | Clc1cnccc1-c1nc(N[C@@H]2CCNC2)c2sccc2n1 [compound 322, [2-(3-Chloro-pyridin-4-yl)-thieno[3,2-d]pyrimidin-4-yl]-(R)-pyrrolidin-3-yl-amine] | 1 to 10 µM
28 | CN1CCN(C(=O)c2ccc(Nc3cc(-c4nc(N[C@@H]5CCNC5)c5sccc5n4)ccn3)cc2)CC1 [compound 613, (4-Methyl-piperazin-1-yl)-(4-{4-[4-((R)-pyrrolidin-3-ylamino)-thieno[3,2-d]pyrimidin-2-yl]-pyridin-2-ylamino}-phenyl)-methanone] | 0.1 to 1 µM
29 | O=C(Nc1cc(-c2nc(N[C@@H]3CCNC3)c3sccc3n2)ccn1)c1cccs1 [compound 595, Thiophene-2-carboxylic acid {4-[4-((R)-pyrrolidin-3-ylamino)-thieno[3,2-d]pyrimidin-2-yl]-pyridin-2-yl}-amide] | 0.1 to 1 µM

Same assay, conditions: full length PKCi at 15 μM ATP; read-out: IC50 in IMAP assay against full length PKCi (Activity)

Row | SMILES | IC50
30 | COc1cnccc1-c1nc(NC[C@@H](N)Cc2ccccc2)c2c3c(sc2n1)CCCC3 [compound 102, (S)—N*1*-[2-(3-methoxy-pyridin-4-yl)-5,6,7,8-tetrahydro-benzo[4,5]thieno[2,3-d]pyrimidin-4-yl]-3-phenyl-propane-1,2-diamine] | 10 to 40 µM
31 | N[C@H](CNc1nc(-c2ccncc2)nc2sc3c(c12)CCOC3)Cc1ccccc1 [compound 82, (S)-3-Phenyl-N*1*-(2-pyridin-4-yl-5,8-dihydro-6H-pyrano[4′,3′:4,5]thieno[2,3-d]pyrimidin-4-yl)-propane-1,2-diamine] | 1 to 10 µM
32 | N[C@H](CNc1nc(-c2ccncc2F)nc2sc3c(c12)CCCC3)Cc1ccccc1 [compound 101, (S)-N*1*-[2-(3-Fluoro-pyridin-4-yl)-5,6,7,8-tetrahydro-benzo[4,5]thieno[2,3-d]pyrimidin-4-yl]-3-phenyl-propane-1,2-diamine] | 1 to 10 µM
